These results are taken from patent US10870684B2, “Disintegrin variants and pharmaceutical uses thereof” (National Cheng Kung University, priority 2014, dated 2020).

A word on the IC50: it is the concentration at which inhibition is half-maximal. A higher IC50 goes with a need for much substance.

This assay deals with platelet aggregation that is mediated by αIIbβ3. Nature of the assay: Inhibition of ADP-induced platelet aggregation in platelet-rich plasma. Format: cell-based. The settings on record: PRP.

Method: Disintegrin (Rho) variants were also tested for their ability to inhibit platelet aggregation that is mediated by αIIbβ3. Venous blood (9 parts) samples from healthy donors who had not received any medication for at least two weeks were collected in 3.8% sodium citrate (1 part). Blood samples were centrifuged at 150×g for 10 min to obtain platelet-rich plasma (PRP) and allowed to stand for 5 min, and PRP was collected. The platelet-poor plasma (PPP) was prepared from the remaining blood by centrifuging at 2000×g for 25 min. The PPP platelet count was measured on a hematology analyzer and diluted to 250,000 platelets/μl. A solution of 190 μl of PRP and 10 μl of either Rho or PBS buffer were incubated for 5 min in a Hema Tracer 601 aggregometer at 37° C. Ten microliters of 200 μM adenosine diphosphate (ADP) were further added to monitor the response of platelet aggregation by light transmission.

The substance “rhodostomin [Rho wild-type, reference compound]” returned a concentration for half-maximal inhibition (IC50) of 83.2 nM.
